Assay results published in patent publication US5183736A, “Methods using estrogen receptor as a constitutive transcriptional activator and a repressor” (La Jolla Cancer Research Foundation, priority 1990, dated 1993).
Entries after “also recorded” stand apart in the source; their conditions may differ.

Key:
[1] = tested on: ERval; assay: gel retardation assay, ERval binding to 32P-labelled ERE; design: species or system human; settings: for effect on binding of ERval to the ERE: high concentrations, FIG. 2b
Description: (§1) (a) DNA binding of ER and ER mutants. […] As control, the labelled ERE (lane 1) and the lysate (lane 2) were run alone. Binding of receptors to labelled ERE was competed with 50 fold excess of unlabelled ERE(S) or nonspecific unlabelled oligonucleotides (N).
(§2) To investigate the ER protein-DNA interaction gel retardation assays were performed^5,13. Receptor proteins were synthesized by in vitro transcription/translation^5,7, incubated with ^32 P-labelled ERE, and run on a non-denaturing acrylamide gel (FIG. 2a). The assay was performed as follows. ER and ERval cDNA cloned in Bluescript (Stratagene) were transcribed using T7 or T3 RNA polymerase, and translated, using rabbit reticulocyte translation system (Promega) as described^5. 5 μl of in vitro translated receptor protein were incubated with ^32 P labeled ERE fragment in a reaction mixture containing 20 mM Hepes buffer pH 7.9, 50 mM KCl, 1 mM DTT, 2.5 mM MgCl2, 10% glycerol, and 1 μg poly (dI-dC) at 25° C. for 20 min. Reaction mixtures were loaded on a 5% non-denaturing polyacrylamide gel containing 10 mM HEPES pH 7.9 and 3.3 mM sodium acetate pH 7.9, and electrophoresed. Gels were run at 4° C., 140 V for 3 h with continued circulation of buffer.

[2] = tested on: mutant estrogen receptor ERval (VAL at position 400); assay: transient cotransfection ERE-CAT reporter assay in CV-1 cells, ERval; format: cell-based, human
Description: (§3) (a) Induction of CAT activity. CV-1 cells were transiently cotransfected with 2 μg of ERE-CAT reporter plasmid alone (control) or together with 1 μg of receptor expression vector and 3 μg of β-gal expression vector (pCH110, Pharmacia) which served as an internal control. Carrier DNA (Bluescript) was added to 23 μg total DNA. […] CAT activity is corrected for β-gal activity.
(§4) CV-1 cells were cotransfected as described under (a) using ER (c) or ERval (d) expression vectors and reporter plasmid.
(§5) CV-1 cells were transiently cotransfected with ER or ERval expression vectors and reporter plasmid as described in FIG. 1. […] CAT enzyme activities presented are corrected for transfection efficiency by measuring β-gal expression.
To investigate the transcriptional regulatory properties of the human estrogen receptor, transient cotransfection experiments were carried out in which CV-1 cells were transfected with an estrogen receptor (ER) expression vector and an estrogen responsive CAT (chloramphenicol acetyl-transferase) reporter gene. We investigated the "wild type" receptor^9 that carries a GLY at position 400 (ER) and a mutant receptor that contains a VAL at position 400 (ERval). This mutant receptor was cloned from a human mammary carcinoma cell line cDNA library and was originally thought to represent the wild type hER^10,11. […]

[3] = tested on: ER-ERE complex; assay: dissociation of the ER-ERE complex (gel retardation); format: binding, human; settings: 10^-8 M ligand, 50 fold excess unlabelled ERE, 10° C., FIG. 6
Description: At time 0, a 50 fold excess of non-labelled ERE was added. After incubation at 10° C. for the indicated time intervals, aliquots were loaded on a running non-denaturing 5% polyacrylamide gel.
The assay was performed as follows.
To measure the stability of the ER-ERE complexes in the presence and absence of ligands, the dissociation of the complexes was analyzed (FIG. 6).

[4] = target: human estrogen receptor (ER, wild type, GLY at position 400) (Homo sapiens, UniProt P03372)
Description: as §3
CV-1 cells were cotransfected with 2 μg ERE reporter plasmid alone (control) and with decreasing amounts of ER expression vector as indicated. […] A representative experiment is shown.
as §4, §5
CV-1 cells were cotransfected as described above. […] CAT activities were measured as described.
To investigate the transcriptional regulatory properties of the human estrogen receptor, transient cotransfection experiments were carried out in which CV-1 cells were transfected with an estrogen receptor (ER) expression vector and an estrogen responsive CAT (chloramphenicol acetyl-transferase) reporter gene. We investigated the "wild type" receptor^9 that carries a GLY at position 400 (ER) and a mutant receptor that contains a VAL at position 400 (ERval). This mutant receptor was cloned from a human mammary carcinoma cell line cDNA library and was originally thought to represent the wild type hER^10,11. In addition we investigated another mutant receptor that we obtained by deleting the coding sequences for amino acids 442-498 (ERdel) of the hormone binding domain. The estrogen response element (ERE) we use here is a palindromic sequence ([…]) that is derived from the vitellogenin gene promoter^12.
(§6) The transient transfection was performed as follows. […] After 24 h cultures were washed with PBS and new medium was added. A modified calcium phosphate precipitation procedure was used for transient transfection^20. 18 h after transfections, cultures were washed twice with PBS, and fresh medium was added together with the desired amount of hormone. After 24 h. cells were collected and cell extract was prepared. β-gal assay was performed as described^21. CAT activity was assayed by using ^3 H-acetylated chloramphenicol and a mixed-phase scintillation measurement, as described in reference 22, below. CPM corrected for β-gal activity represents relative CAT activity. ERE-CAT was constructed by inserting the above synthetic ERE-oligonucleotide with BglII linkers into the BamH1 site of pBLCAT2^23.

[5] = tested on: ERval; assay: repressor assay: ERval cotransfected with ER-TRα and ERE-CAT in CV-1 cells; format: cell-based, human; settings: 10^-8 M OH-Tam, 10^-7 M T3, FIG. 5
Description: CAT activities were measured as described in the Example. A representative experiment is shown.
The transient transfection was performed as follows.

[6] = target: ER (Homo sapiens, UniProt P03372); settings: 10^-8 M OH-Tam, 10^-7 M T3, FIG. 5
Description: (§7) A representative experiment is shown.
as §6

[7] = tested on: ER-TRα hybrid receptor; assay: ERE-CAT activation by hybrid receptor ER-TRα alone in CV-1 cells; format: cell-based, human; settings: 10^-7 M T3, FIG. 5
Description: as §7, §6

[8] = tested on: TRα-ERval hybrid receptor; settings: 10^-8 M E2, FIG. 4c
Description: as §2

[9] = tested on: ERdel; settings: 10^-8 M E2, FIG. 2a
Description: as §1, §2

[10] = target: estrogen receptor alpha (ER, wild type, Gly400) (Homo sapiens, UniProt P03372 P03372:1-595); assay: EMSA; strong with and without E2 or Tam; 20 mM Hepes pH 7.9, 50 mM KCl, 2.5 mM MgCl2, poly(dI-dC), 25 C; dissociation not substantially changed by E2 or OH-Tam (FIG.); settings: tags: rabbit reticulocyte lysate; chain copies: 2; label: 32P
[11] = target: ERval (estrogen receptor Val400) (Homo sapiens, UniProt P03372 P03372:1-595, G400V); assay: EMSA; with E2; settings: tags: rabbit reticulocyte lysate; chain copies: 2; label: 32P
ERval (estrogen receptor Val400), sequence (P03372 whole entry G400V, one chain of several): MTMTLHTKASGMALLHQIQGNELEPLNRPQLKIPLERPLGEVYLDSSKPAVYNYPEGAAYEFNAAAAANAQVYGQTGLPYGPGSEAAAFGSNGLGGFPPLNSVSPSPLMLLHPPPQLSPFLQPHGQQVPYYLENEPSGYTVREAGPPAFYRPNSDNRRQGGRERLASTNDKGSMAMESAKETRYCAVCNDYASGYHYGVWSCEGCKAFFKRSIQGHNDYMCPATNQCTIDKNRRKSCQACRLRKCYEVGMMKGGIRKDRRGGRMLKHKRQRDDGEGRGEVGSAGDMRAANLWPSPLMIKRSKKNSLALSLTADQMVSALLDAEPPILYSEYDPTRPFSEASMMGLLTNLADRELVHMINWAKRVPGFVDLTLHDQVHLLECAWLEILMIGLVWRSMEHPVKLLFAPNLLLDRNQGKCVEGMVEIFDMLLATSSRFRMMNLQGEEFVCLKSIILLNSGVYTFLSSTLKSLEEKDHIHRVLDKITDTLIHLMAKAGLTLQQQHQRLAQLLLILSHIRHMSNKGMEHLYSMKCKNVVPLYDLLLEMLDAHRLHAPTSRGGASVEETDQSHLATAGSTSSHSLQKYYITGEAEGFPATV

human estrogen receptor (ER, wild type, GLY at position 400), sequence (P03372 whole entry): as the sequence (P03372 whole entry G400V, one chain of several) above, with V400G counted along it
estrogen receptor alpha (ER, wild type, Gly400), sequence (P03372 whole entry, one chain of several): as the sequence (P03372 whole entry G400V, one chain of several) above, with V400G counted along it
ER, sequence (P03372 whole entry): as the sequence (P03372 whole entry G400V, one chain of several) above, with V400G counted along it

## CC/C(=C(\c1ccccc1)c1ccc(OCCN(C)C)cc1)c1ccccc1 [Tam, tamoxifen]
[1]
  effect on binding of ERval to the ERE: drastically increase

## 4-hydroxytamoxifen [OH-Tam]
[2]; OH-Tam 10^-8 M, no E2, FIG. 3a
  effect on activation capacity of ERval: restores the basal gene activation capacity; also recorded: increased by OH-Tam (10^-8 M) to the basal level of ER wild type
[2]; OH-Tam with E2 10^-8 M, FIG. 3a
  effect on ERval activation capacity in the presence of E2: reduced to the wild type basal level
[3]
  effect on dissociation of the ER-DNA complex: no substantial difference
[4]
  OH-Tam concentration sufficient to repress E2 action on ER: nanomolar concentrations
  concentration dependence of the agonist effect on ER: does not increase with increasing concentrations of ligand
  effect on ER basal level activity: do not significantly repress
  effect on basal level activity of ER at very low receptor concentrations: increases the basal level activity
  effect on transcriptional enhancing activity of ER: maintained at the constitutive basal level
[5]
  repression of ER-TRα activity by ERval: restores the ability of ERval to repress; also recorded: only an efficient repressor of ER-TRα in the presence of OH-Tam
[6]
  effect on repression capacity of ER towards ER-TRα: slightly increases
[1]
  effect on binding of ERval to the ERE: drastically increase

## N[C@@H](Cc1cc(I)c(Oc2ccc(O)c(I)c2)c(I)c1)C(=O)O [T3]
[7]
  ERE-CAT gene expression by ER-TRα alone: efficiently enhances

## C[C@]12CC[C@@H]3c4ccc(O)cc4CC[C@H]3[C@@H]1CC[C@@H]2O [E2, estradiol]
[8]
  increase of affinity of TRα-ERval for DNA (TRE): several fold
[9]
  binding of ERdel to DNA with and without E2: binds poorly to DNA in the presence and absence of E2
[1]; 10^-8 M E2, FIG. 2a
  binding of ERval to ERE with E2: binds strongly to ERE when E2 is included

B1: ERE palindrome (dsDNA)
DNA 1: TCAGGTCACTGTGACCTGA
DNA 2: TCAGGTCACAGTGACCTGA
[10]
  binding result: binds
[11]
  binding result: binds
